From patent US9193669B2, “Compounds for treating ophthalmic diseases and disorders” (Acucela Inc., priority 2008, dated 2015) come the findings set out here.

The structures appear in SMILES notation.

For the experiment, the target named is T1, isomerase (Mus musculus, UniProt Q91ZQ5).
T1 construct: The recovery of 11-cis-retinal after bleaching can be used to estimate the activity of isomerase in vivo; from tissue; host or cells: eyes of living mice (CD-1; Balb/c also named)
T1 sequence (Q91ZQ5 1-533): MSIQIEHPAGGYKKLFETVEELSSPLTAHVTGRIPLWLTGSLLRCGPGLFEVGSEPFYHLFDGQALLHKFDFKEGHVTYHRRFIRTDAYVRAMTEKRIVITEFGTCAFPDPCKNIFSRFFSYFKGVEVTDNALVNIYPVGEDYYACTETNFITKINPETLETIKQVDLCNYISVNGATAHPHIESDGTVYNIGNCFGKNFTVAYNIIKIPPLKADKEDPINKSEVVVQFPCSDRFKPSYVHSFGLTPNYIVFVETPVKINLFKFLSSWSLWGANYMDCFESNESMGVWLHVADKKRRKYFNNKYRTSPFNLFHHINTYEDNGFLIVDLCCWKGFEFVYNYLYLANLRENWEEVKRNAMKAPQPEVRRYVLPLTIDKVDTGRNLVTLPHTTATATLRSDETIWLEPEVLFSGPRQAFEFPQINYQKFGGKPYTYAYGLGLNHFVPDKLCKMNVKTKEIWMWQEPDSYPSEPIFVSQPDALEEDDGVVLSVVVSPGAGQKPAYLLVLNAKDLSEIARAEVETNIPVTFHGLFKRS
The experiment can be described thus: In vivo murine isomerase assay. Also on record: species or system mice. The conditions noted are these: mouse, po, 4 h; read-out: % Inibition 1 mg/kg, 4 h. The protocol:
The capability of compounds described herein to inhibit isomerase was determined by an in vivo murine isomerase assay. Brief exposure of the eye to intense light (“photobleaching” of the visual pigment or simply “bleaching”) is known to photo-isomerize almost all 11-cis-retinal in the retina. The recovery of 11-cis-retinal after bleaching can be used to estimate the activity of isomerase in vivo. Delayed recovery, as represented by lower 11-cis-retinal oxime levels, indicates inhibition of isomerization reaction. Procedures were performed essentially as described by Golczak et al., Proc. Natl. Acad. Sci. […] Mice were gavaged with the compounds described in the present disclosure. After about 2-24 hours in the dark, the mice were exposed to photobleaching of about 5,000 lux of white light for 10 minutes. The mice were allowed to recover for about 2 hours in the dark. The animals were then sacrificed by carbon dioxide inhalation. Retinoids were extracted from the eye and the regeneration of 11-cis-retinal was assessed at various time intervals. […] After the mice were sacrificed, the eyes were immediately removed and placed in liquid nitrogen for storage. The eyes were placed in about 500 μL of bis-tris propane buffer (10 mM, pH˜7.3) and about 20 μl of 0.8M hydroxylamine (pH˜7.3). The eyes were cut up into small pieces with small iris scissors and then thoroughly homogenized at 30000 rpm with a mechanical homogenizer (Polytron PT 1300 D) in the tube until no visible tissue remains. About 500 μL of methanol and about 500 μL of heptane was added to each tube. The tubes were attached to a vortexer so that the contents are mixed thoroughly for about 15 minutes in room temperature. […] The samples were analyzed on an Agilent 1100 HPLC system with normal phase column: SILICA (Beckman Coutlier, dp 5 μm, […]). […] Loading volume for each sample was about 100 μl; detection wavelength is 360 nm. The area under the curve for 11-cis-retinal oxime was calculated by Agilent Chemstation software and recorded manually. Data processing was performed using Prizm software. Positive control mice (no compound administered) were sacrificed fully dark-adapted and the eye retinoids analyzed. Light (bleached) control mice (no compound administered) were sacrificed and retinoids isolated and analyzed immediately after light treatment. A time course study was also performed to determine the isomerase inhibitory activity of compounds of the present disclosure. Female or male mice (such as Balb/c mice) (at least 4/group) received 0 to about 5 mg of compounds (in water) per kg bodyweight orally, by gavage. The animals were then “photo-bleached” (about 5000 Lux white light for about 10 minutes) at about 2, 4, 8, 16 and 24 hours after dosing, and returned to darkness to allow recovery of the 11-cis-retinal content of the eyes. Mice were sacrificed about 2 hours after bleaching, eyes were enucleated, and retinoid content was analyzed by HPLC. A dose response in vivo isomerase inhibition study is performed with compounds of the present disclosure. Male or female mice (such as Balb/c mice)(at least about 8/group) are dosed orally with about 0.01 to 25 mg/kg of the compounds of HCl salts of the compounds in sterile water as solution, and photobleached about 4 hours after dosing. Recovery and retinoid analysis is performed as described above. Dark control mice are vehicle-only treated, sacrificed fully dark adapted without light treatment, and analyzed. […]
For `NCCC(O)c1cccc(NCC2CCCC2)c1` (centres unmarked) [Example 39, 3-Amino-1-(3-(cyclopentylmethylamino)phenyl)propan-1-ol], the inhibition in vivo at 1 mg/kg was found to be 69.9 ± 6.85%.
For the compound `NCCC(O)c1cccc(NS(=O)(=O)c2ccccc2)c1` (centres unmarked) [Example 101, N-(3-(3-Amino-1-hydroxypropyl)phenyl)benzenesulfonamide], the inhibition in vivo at 1 mg/kg stood at 1.82 ± 10.5%.
The result for `CCC(CC)CNc1cccc(C(O)CCN)c1` (centres unmarked) [Example 35, 3-amino-1-(3-(2-ethylbutylamino)phenyl)propan-1-ol] reads 95.2 ± 1.41%; that for `NCCC(O)c1cccc(NCC2CCCCC2)c1` (centres unmarked) [Example 11, 3-amino-1-(3-(cyclohexylmethylamino)phenyl)propan-1-ol], 95.3 ± 2.7%; that for `CCC(CC)CNc1cccc(CCCN)c1` [Example 33, 3-(3-aminopropyl)-N-(2-ethylbutyl)aniline], 4.32 ± 7.88%.
`COc1ccccc1CNc1cccc(C(=O)CCN)c1` [Example 48, 3-Amino-1-(3-(2-methoxybenzylamino)phenyl)propan-1-one]: the inhibition in vivo at 1 mg/kg was 0.21 ± 8.88%.
For `[2H]C(O)(CCN)c1cccc(NCC2CCCCC2)c1` (centres unmarked) [Example 81, 3-Amino-1-(3-(cyclohexylmethylamino)phenyl)-1-deuteropropan-1-ol], the inhibition in vivo at 1 mg/kg worked out at 85 ± 3.06%.
To `CCC(CC)CNc1cccc(C(=O)CCN)c1` [Example 36, 3-Amino-1-(3-(2-ethylbutylamino)phenyl)propan-1-one] belongs -1.4 ± 2.78%; to `[2H]C([2H])(CN)C(O)c1cccc(NC(=O)C2CCCCC2)c1` (centres unmarked) [Example 57, N-(3-(3-amino-2,2-dideutero-1-hydroxypropyl)phenyl)cyclohexanecarboxamide], 2.01 ± 1.3%; to `NCCCc1cccc(NCCCc2ccccc2)c1` [Example 64, 3-(3-Aminopropyl)-N-(3-phenylpropyl)aniline], 3.83%.
As to `[2H]C1(CNc2cccc(C(O)CCN)c2)CCCCC1` (centres unmarked) [Example 91, 3-Amino-1-(3-((1-deuterocyclohexyl)methylamino)phenyl)propan-1-ol], the inhibition in vivo at 1 mg/kg was determined as 95.5 ± 1.07%.
With `CN(CC1CCCCC1)c1cccc(C(O)CCN)c1` (centres unmarked) [Example 90, 3-Amino-1-(3-((cyclohexylmethyl)(methyl)amino)phenyl)propan-1-ol], the inhibition in vivo at 1 mg/kg turned out to be 3.17 ± 4.97%.
Consider `[2H]C1([2H])C([2H])([2H])C([2H])([2H])C([2H])(C(=O)Nc2cccc(C(O)CCN)c2)C([2H])([2H])C1([2H])[2H]` (centres unmarked) [Example 93, N-(3-(3-Amino-1-hydroxypropyl)phenyl)-1,2,2,3,3,4,4,5,5,6,6-undecadeuterocyclohexanecarboxamide], for which the inhibition in vivo at 1 mg/kg is -0.53 ± 4.53%.
For the compound `CCCCCNc1cccc(C(O)CCN)c1` (centres unmarked) [Example 13, 3-amino-1-(3-(pentylamino)phenyl)propan-1-ol], the inhibition in vivo at 1 mg/kg came out at 1.98 ± 6.02%.
To `[2H]C([2H])(CN)C(O)c1cccc(C#CC2CCCCC2)c1` (centres unmarked) [Example 122, 3-amino-1-(3-(cyclohexylethynyl)phenyl)-2,2-dideuteropropan-1-ol] belongs 84.9 ± 4.5%; to `[2H]C([2H])(CN)C(O)c1cccc(NS(=O)(=O)C2CCCCC2)c1` (centres unmarked) [Example 58, N-(3-(3-amino-2,2-dideutero-1-hydroxypropyl)phenyl)cyclohexanesulfonamide], 6.94 ± 5.15%; to `[2H]C([2H])(N)CC(O)c1cccc(NCC2CCCCC2)c1` (centres unmarked) [Example 83, 3-Amino-1-(3-(cyclohexylmethylamino)phenyl)-3,3-dideuteropropan-1-ol], 89.5 ± 2.09%.
With `NCCC(=O)c1cccc(NS(=O)(=O)c2ccccc2)c1` [Example 103, N-(3-(3-Aminopropanoyl)phenyl)benzenesulfonamide], the inhibition in vivo at 1 mg/kg is -2.77 ± 6.53%.
For `NCCC(O)c1cccc(NC(=O)C2CCCCC2)c1` (centres unmarked) [Example 15, N-(3-(3-amino-1-hydroxypropyl)phenyl)cyclohexanecarboxamide], the inhibition in vivo at 1 mg/kg is -0.003 ± 19.4%.
Take `NCCC(O)c1cccc(NCCc2ccccc2)c1` (centres unmarked) [Example 49, 3-Amino-1-(3-(phenethylamino)phenyl)propan-1-ol]: the inhibition in vivo at 1 mg/kg stood at 4.54%.
To `[2H]C([2H])(CN)C(O)c1cccc(NCC2CCCCC2)c1` (centres unmarked) [Example 82, 3-Amino-1-(3-(cyclohexylmethylamino)phenyl)-2,2-dideuteropropan-1-ol] belongs 75.1 ± 8.03%; to `CCCC(CCC)CNc1cccc(C(O)CCN)c1` (centres unmarked) [Example 37, 3-Amino-1-(3-(2-propylpentylamino)phenyl)propan-1-ol], 101.6 ± 0.49%.
As for `NCCC(O)c1cccc(NCCCCCOCc2ccccc2)c1` (centres unmarked) [Example 41, 3-Amino-1-(3-(5-(benzyloxy)pentylamino)phenyl)propan-1-ol], the inhibition in vivo at 1 mg/kg was -0.34 ± 6.12%.
For `CCCC(CCC)C(=O)Nc1cccc(C(O)CCN)c1` (centres unmarked) [Example 73, N-(3-(3-Amino-1-hydroxypropyl)phenyl)-2-propylpentanamide], the inhibition in vivo at 1 mg/kg was -1.24 ± 4.43%.
`COc1ccccc1CNc1cccc(C(O)CCN)c1` (centres unmarked) [Example 47, 3-Amino-1-(3-((2-methoxybenzyl)amino)phenyl)propan-1-ol]: the inhibition in vivo at 1 mg/kg was found to be 4.08 ± 4.84%.
For `NCCC(=O)c1cccc(NC(=O)C2CCCCC2)c1` [Example 16, N-(3-(3-aminopropanoyl)phenyl)cyclohexanecarboxamide], the inhibition in vivo at 1 mg/kg stood at 17.1 ± 5.32%.
Take `NCCC(=O)c1cccc(NCC2CCCC2)c1` [Example 40, 3-Amino-1-(3-(cyclopentylmethylamino)phenyl)propan-1-one]: the inhibition in vivo at 1 mg/kg is 1.24 ± 9.74%.
As for `NCCCc1cccc(NS(=O)(=O)c2ccccc2)c1` [Example 99, N-(3-(3-Aminopropyl)phenyl)benzenesulfonamide], the inhibition in vivo at 1 mg/kg is -3.83 ± 5.52%.
`CCCCCNc1cccc(C(=O)CCN)c1` [Example 14, 3-amino-1-(3-(pentylamino)phenyl)propan-1-one]: the inhibition in vivo at 1 mg/kg stood at 8.12 ± 16.2%.
To `NCCC(=O)c1cccc(NCCCc2ccccc2)c1` [Example 60, 3-Amino-1-(3-(3-phenylpropylamino)phenyl)propan-1-one] belongs -1.33 ± 5.2%; to `[2H]C([2H])(N)CC(O)c1cccc(C#CC2(O)CCCCC2)c1` (centres unmarked) [Example 121, 1-((3-(3-amino-3,3-dideutero-1-hydroxypropyl)phenyl)ethynyl)cyclohexanol], 27.5 ± 9.6%.
For the compound `[2H]C([2H])(N)CC(O)c1cccc(C#CC2CCCCC2)c1` (centres unmarked) [Example 123, 3-amino-1-(3-(cyclohexylethynyl)phenyl)-3,3-dideuteropropan-1-ol], the inhibition in vivo at 1 mg/kg turned out to be 91.4 ± 2.5%.
Take `NCCC(O)c1cccc(NCCCc2ccccc2)c1` (centres unmarked) [Example 59, 3-Amino-1-(3-(3-phenylpropylamino)phenyl)propan-1-ol]: the inhibition in vivo at 1 mg/kg came out at 4.24 ± 13%.
As to `NCCC(=O)c1cccc(NCC2CCCCC2)c1` [Example 12, 3-amino-1-(3-(cyclohexylmethylamino)phenyl)propan-1-one], the inhibition in vivo at 1 mg/kg was determined as 9.16 ± 9.41%.
The result for `NCCCc1cccc(NCC2CCCC2)c1` [Example 31, 3-(3-aminopropyl)-N-(cyclopentylmethyl)aniline] reads 9.52 ± 4.6%.
